The target in series [1] is Hydroxycarboxylic acid receptor 2 (Homo sapiens, UniProt Q8TDS4). The experiment in a line: Agonist activity at human GPR109A receptor.
Series [2] is described as follows: Distribution coefficient, logD of compound at pH 7.4. It counts as physicochemical. The settings on record: octanol/water.
A short description of series [3]: Solubility of compound. It counts as physicochemical.
Series [4] has as its target Hydroxycarboxylic acid receptor 1 (Homo sapiens, UniProt Q9BXC0). The experiment in a line: Agonist activity at human GPR81 overexpressed in CHO cells assessed as inhibition of forskolin-stimulated cAMP production. It counts as functional, cell-based. For orientation: Cyclic AMP is a second messenger, typically raised through Gs and lowered through Gi signalling.
Series [5] deals with T1, Protein Gpr81 (Rattus norvegicus) (UniProt G3V906).
T1 sequence (whole entry): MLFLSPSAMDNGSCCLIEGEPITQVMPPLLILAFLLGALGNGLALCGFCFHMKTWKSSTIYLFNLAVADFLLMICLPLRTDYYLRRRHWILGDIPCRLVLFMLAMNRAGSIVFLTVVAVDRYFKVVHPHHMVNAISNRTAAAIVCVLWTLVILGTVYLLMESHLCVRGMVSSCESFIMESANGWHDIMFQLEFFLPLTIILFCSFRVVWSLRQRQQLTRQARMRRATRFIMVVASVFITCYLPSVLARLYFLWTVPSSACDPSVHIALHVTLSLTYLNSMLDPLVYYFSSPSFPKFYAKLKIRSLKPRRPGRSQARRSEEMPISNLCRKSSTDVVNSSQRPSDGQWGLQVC
As to the kind of experiment: Agonist activity at rat GPR81 overexpressed in HEK293 cells by [35S]GTPgammaS binding assay. Format: cell-based. (GTPγS is a poorly hydrolysed GTP analogue; its binding reports G protein activation.)

Series [6] deals with Growth hormone secretagogue receptor type 1 (Homo sapiens, UniProt Q92847). As to the kind of experiment: Displacement of [125I]-ghrelin from human GHS-R1a stably expressed in HEK cell membrane measured after 60 mins by gamma counter method. Format: cell membranes. For orientation: Loss of bound radioactivity is the signal in a displacement assay; it reports binding, not function.

The structures appear in SMILES notation. ≈ marks a conversion by molar mass, not a printed value. Calls of active or inactive are those of the source. The rule behind the calls is not given here.

Sequence of Hydroxycarboxylic acid receptor 1 (Q9BXC0 whole entry): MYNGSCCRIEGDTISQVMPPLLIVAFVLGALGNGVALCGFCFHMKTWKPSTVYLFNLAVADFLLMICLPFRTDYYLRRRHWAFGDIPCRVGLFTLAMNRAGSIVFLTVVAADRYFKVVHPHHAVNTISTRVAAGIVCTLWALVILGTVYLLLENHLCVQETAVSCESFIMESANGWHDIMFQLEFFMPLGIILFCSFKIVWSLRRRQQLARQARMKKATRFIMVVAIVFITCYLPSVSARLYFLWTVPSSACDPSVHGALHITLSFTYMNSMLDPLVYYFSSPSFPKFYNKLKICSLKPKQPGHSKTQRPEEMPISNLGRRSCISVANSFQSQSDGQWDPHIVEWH
Sequence of Hydroxycarboxylic acid receptor 2 (Q8TDS4 whole entry): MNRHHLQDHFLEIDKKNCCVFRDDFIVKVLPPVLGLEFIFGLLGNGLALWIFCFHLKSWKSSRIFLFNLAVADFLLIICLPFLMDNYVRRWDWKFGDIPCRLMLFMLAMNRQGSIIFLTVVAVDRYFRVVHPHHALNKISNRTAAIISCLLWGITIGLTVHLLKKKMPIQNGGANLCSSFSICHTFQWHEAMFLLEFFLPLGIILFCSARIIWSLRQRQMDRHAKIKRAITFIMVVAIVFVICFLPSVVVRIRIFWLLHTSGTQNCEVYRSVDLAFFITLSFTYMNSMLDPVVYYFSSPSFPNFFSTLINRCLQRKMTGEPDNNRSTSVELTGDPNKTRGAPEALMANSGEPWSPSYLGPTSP
Sequence of Growth hormone secretagogue receptor type 1 (Q92847 whole entry): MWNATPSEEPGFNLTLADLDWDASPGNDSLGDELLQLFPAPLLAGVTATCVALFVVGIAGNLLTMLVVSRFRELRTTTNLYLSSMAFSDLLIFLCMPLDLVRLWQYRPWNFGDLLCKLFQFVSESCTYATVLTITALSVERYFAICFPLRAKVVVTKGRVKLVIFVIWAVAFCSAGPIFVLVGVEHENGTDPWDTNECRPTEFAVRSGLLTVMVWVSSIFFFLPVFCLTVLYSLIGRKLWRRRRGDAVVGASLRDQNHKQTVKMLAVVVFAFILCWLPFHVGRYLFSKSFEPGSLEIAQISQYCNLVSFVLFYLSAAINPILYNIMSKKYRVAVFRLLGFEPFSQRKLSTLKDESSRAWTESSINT

As for `CCOc1cc(Cl)c(C(=O)NC(=O)Nc2nc3ccc(CN4CCN(C)CC4)cc3s2)cc1N1CCOCC1`, the results for the EC50 in series [1] and in series [4] were 2160 nM and 74 nM, respectively. This compound also returned a logD in series [2] of 2.9. For the same compound, the solubility in series [3] was 4 µM (≈ 2.29 µg/mL). For the same compound, the outcome in series [5] was Active. The compound also came in with an IC50 in series [6] of 960 nM.

As usually defined, the EC50 is the midpoint of the concentration-response curve. By logD is commonly meant the decadic logarithm of the distribution of all forms, ionised or not, between an organic phase and buffer at a given pH. Higher therefore signals a more lipophilic compound. One may read the solubility as how much of the substance goes into solution per volume. In general, IC50 refers to the concentration at which inhibition is half-maximal. Read a high IC50 as weaker potency.

For the origin of these results see ChEMBL document CHEMBL4610061, “Identification of novel GPR81 agonist lead series for target biology evaluation” (Bioorg Med Chem Lett, 2020).
